Data as given in patent publication US12195479B2, “Five- and six-membered compound, and preparation method therefor and pharmaceutical composition and use thereof” (HANGZHOU POLYMED BIOPHARMACEUTICALS, INC., priority 2021, dated 2025).
pIC50: −log10 of the molar value.

Legend:
IRAK4 kinase = biological target: T1, IRAK4 kinase (Homo sapiens, UniProt Q9NWZ3); assay: Kinase inhibition, fluorescence microfluidic mobility shift assay (IRAK4); type: biochemical; settings: substrate peptide FAM-P8 3 μM, ATP 10 μM; one hour at 28° C.; assayed in duplicate
T1 sequence (Q9NWZ3 1-460): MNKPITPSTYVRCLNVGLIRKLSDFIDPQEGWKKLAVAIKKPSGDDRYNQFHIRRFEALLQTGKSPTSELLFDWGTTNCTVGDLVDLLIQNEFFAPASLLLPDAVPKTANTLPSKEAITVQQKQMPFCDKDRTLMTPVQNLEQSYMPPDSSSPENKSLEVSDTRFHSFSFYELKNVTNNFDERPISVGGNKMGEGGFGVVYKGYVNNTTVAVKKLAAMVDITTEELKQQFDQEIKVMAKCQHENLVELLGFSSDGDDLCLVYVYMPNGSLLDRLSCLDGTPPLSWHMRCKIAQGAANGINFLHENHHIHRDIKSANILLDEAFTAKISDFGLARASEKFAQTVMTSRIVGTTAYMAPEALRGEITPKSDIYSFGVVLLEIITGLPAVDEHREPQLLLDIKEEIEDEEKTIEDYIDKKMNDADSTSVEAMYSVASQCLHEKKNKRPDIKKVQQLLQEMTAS

MV4-11 cells = assay: Cytotoxicity against MV4-11 cells (CellTiter-Glo); type: cell-based; settings: Homo sapiens, incubated for 72 hours, CellTiter-Glo chemiluminescence
Procedure: Determination of the IC50 Value of the Compound's Cytotoxicity Against MV4-11 Cells
MV-4-11 cells were cultured with IMDM complete medium (IMDM+10% fetal bovine serum+1% Penicillin-Streptomycin, a mixture of penicillin-streptomycin). • 2. MV-4-11 cells in good condition were collected and washed twice with DPBS ([…] phosphate buffered saline solution). • 3. MV-4-11 cells were resuspended with IMDM complete medium, the cell density was adjusted to 1.11×10^6 cells/mL, and the MV-4-11 cells were added to 96-well plates at 90 μL per well. • 4. A compound solution with 10-fold concentration was prepared with IMDM complete medium, 10 μL of the compound solution with 10-fold concentration was added to the cells in the 96-well plate, mixed well, and then the 96-well plate was placed in a 5% CO2 incubator at 37° C. and incubated for 72 hours. • 5. After the incubation, the 96-well plate was taken out and equilibrated for 30 minutes at room temperature. Then 100 μL of CellTiter Glo reagent was added to each well and mixed on a horizontal shaker for 2 minutes. • 6. The 96-well plate was removed, equilibrated at room temperature for 10 minutes, and the chemiluminescence value was detected on a microplate reader.

FLT3 kinase = biological target: T2, FLT3 kinase (Homo sapiens, UniProt P36888); assay: Kinase inhibition, fluorescence microfluidic mobility shift assay (FLT3); type: biochemical; settings: substrate peptide FAM-P2 3 μM, ATP 97 μM; one hour at 28° C.; assayed in duplicate
T2 sequence (P36888 564-993): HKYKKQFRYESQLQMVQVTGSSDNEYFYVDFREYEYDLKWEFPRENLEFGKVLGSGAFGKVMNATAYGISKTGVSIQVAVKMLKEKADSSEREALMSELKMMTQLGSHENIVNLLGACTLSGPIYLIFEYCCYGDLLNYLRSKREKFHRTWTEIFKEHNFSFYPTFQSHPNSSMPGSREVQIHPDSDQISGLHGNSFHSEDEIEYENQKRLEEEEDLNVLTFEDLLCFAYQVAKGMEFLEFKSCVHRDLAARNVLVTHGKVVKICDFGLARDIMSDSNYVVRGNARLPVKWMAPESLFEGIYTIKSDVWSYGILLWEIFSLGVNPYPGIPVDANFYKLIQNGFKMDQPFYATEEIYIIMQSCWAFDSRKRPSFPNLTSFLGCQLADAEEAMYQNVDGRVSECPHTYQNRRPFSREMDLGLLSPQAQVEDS
Procedure: Based on the experimental method of fluorescence microfluidic mobility shift assay, the IC50 value of the compound for competitive binding of ATP to kinases IRAK4 and FLT3 was determined. The initial detection concentration of the compound was 10 μM, which was diluted to 0.38 nM with a 4-fold gradient and assayed in duplicate. In this case, commercially available staurosporine was the standard control for the assay.
Information on reagents and consumables is as follows: • IRAK4 kinase (Carna, Cat. No. 09-145, Lot. No. 14CBS-0020 H) • FLT3 kinase (Carna, Cat. No. 08-154, Lot. No. 07CBS-2350) • Substrate peptide FAM-P2 (GL Biochem, Cat. No. 112394, Lot. No. P131014-XP112394) • Substrate peptide FAM-P8 (GL Biochem, Cat. No. 112396, Lot. No. P170731-SY112396) • ATP (adenosine triphosphate, Sigma, Cat. No. A7699-1G, CAS No. 987-65-5) • DMSO (dimethyl sulfoxide, Sigma, Cat. No. D2650) • EDTA (ethylenediaminetetraacetic acid, Sigma, Cat. No. E5134, CAS No. 60-00-4) • Staurosporine (Selleckchem, Cat. No. 51421) • HEPES (4-(2-Hydroxyethyl)-1-piperazineethanesulfonic acid, Gibco, Cat. No. 15630-080) • Brij-35 solution (Polyoxyethylene lauryl ether, Sigma, Cat. No. B41840-100 mL) • DTT (dithiothreitol, Sigma, Cat. No. D0632-20G) • 0.2% Coating Reagent #3 (0.2% coating reagent, Perkin Elmer, Cat. No. 760050) • 96-well plate (Corning, Cat. No. 3365) • 384-well plate (Corning, Cat. No. 3573) Experimental operation method: • 1) FLT3 and IRAK4 kinases were dissolved in the kinase buffer (50 mM HEPES pH 7.5, 10 mM MgCl2, 2 mM DTT, and 0.01% Brij-35) at final concentrations of 0.9 nM, 30 nM, and 6 nM, respectively. • 2) The substrate peptide FAM-P2 and the substrate peptide FAM-P8, together with ATP, were dissolved in the above kinase buffer, respectively, where the final concentrations of the substrate peptide FAM-P2 and ATP for the determination of FLT3 were 3 μM and 97 μM, respectively; and the final concentrations of the substrate peptide FAM-P8 and ATP for the determination of IRAK4 were 3 μM and 10 μM, respectively. • 3) Compound dilution: The compound was first diluted to 50 μM, and then diluted downward with DMSO in a 4-fold gradient. In this case, the solution without compound and kinase served as the blank control, corresponding to the “minimum value” shown below; the solution without compound but containing kinase, adenosine triphosphate, DMSO, and the buffer served as the positive control, corresponding to the “maximum value” shown below. • 4) Kinase reaction and termination: 10 μL of the kinase buffer was added to a 384-well plate containing 5 μL of the compound to be tested, and the mixture was incubated for 10 minutes at room temperature; another 10 μL, of buffer containing the substrate peptide and adenosine triphosphate was added to the 384-well plate, and after incubation for one hour at 28° C., 25 μL, of termination solution (100 mM HEPES pH 7.5, 50 mM EDTA, 0.2% Coating Reagent #3, and 0.015% Brij-35) was added to each well for reaction termination. • 5) Data reading: CaliperEZ Reader II instrument was used to read the conversion rate data. Setting conditions: downstream voltage as −500 V, upstream voltage as −2250 V, base pressure as −0.5 PSI, and screening pressure as −1.2 PSI. • 6) Data calculation: the conversion rate data was copied from CaliperEZ Reader II, and the conversion rate was converted into inhibition rate data.

Row | Compound | pIC50 (IRAK4 kinase) | pIC50 (FLT3 kinase) | pIC50 (MV4-11 cells)
1 | Cc1cc(-c2nc(C(=O)Nc3cc4cn(CCC5CCNC5=O)nc4cc3C(C)(C)O)co2)ccn1 (stereo not shown) [II-1] | 7.96 | 9.47 | 7.71
2 | COc1cn2nc(C3CCNCC3)cc2cc1NC(=O)c1coc(-c2ccnc(C)c2)n1 [II-3F] | 8.22 | 8.64 | 7.82
3 | COc1cc2nn(CCC3CCNC3=O)cc2cc1NC(=O)c1coc(Br)n1 (stereo not shown) [II-4] | 7.14 | 7.92 | 
4 | Cc1cc(-c2nc(C(=O)Nc3cc4cc(CCC(C)(C)O)nn4cc3C(C)(C)O)co2)ccn1 [II-28] | 7.80 | 9.10 | 8.51
5 | Cc1cc(-c2nc(C(=O)Nc3cc4cn(CCC(C)(C)O)nc4cc3C(C)(C)O)co2)ccn1 [II-49] | 8.29 | 9.49 | 8.30
6 | Cc1cc(-c2nc(C(=O)Nc3cc4cn(CCN5CC6(COC6)C5)nc4cc3C(C)(C)O)co2)ccn1 [II-51] | 8.19 | 9.49 | 7.80
7 | Cc1cc(-c2nc(C(=O)Nc3cc4cn(C5CCN(CC(F)(F)F)CC5)nc4cc3C(C)(C)O)co2)ccn1 [II-59] | 8.31 | 9.20 | 7.90
8 | Cc1cc(-c2nc(C(=O)Nc3cc4cn(CCC5CCNC5=O)nc4cc3OC3COC3)co2)ccn1 (stereo not shown) [II-64] | 8.35 |  | 8.89
9 | CC(C)(O)CCc1cc2cc(NC(=O)c3coc(-c4ccnc(C(F)(F)F)c4)n3)c(C(C)(C)O)cn2n1 [II-92] | 8.31 | 7.81 | 7.20
10 | CC(C)(O)CCn1cc2cc(NC(=O)c3coc(-c4ccnc(C(F)(F)F)c4)n3)c(C(C)(C)O)cc2n1 [II-93] | 8.57 | 8.66 | 7.68
11 | Cc1cc(-c2nc(C(=O)Nc3cc4cn(CCN5CCC(F)(F)C5)nc4cc3C(C)(C)O)co2)ccn1 [II-97] | 8.16 | 9.28 | 7.86
12 | Cc1cc(-c2nc(C(=O)Nc3cc4cn(CCC(C)(C)O)nc4cc3N3CCC(F)(F)C3)co2)ccn1 [II-98] | 8.28 | 9.36 | 9.52
13 | Cc1cc(-c2nc(C(=O)Nc3cc4cn(C5CCC6(CNC6)C5)nc4cc3C(C)(C)O)co2)ccn1 (stereo not shown) [II-99] | 8.26 | 9.59 | 7.96
14 | Cc1cc(-c2nc(C(=O)Nc3cc4cn(C5CC6CCC(C5)N6)nc4cc3C(C)(C)O)co2)ccn1 (stereo not shown) [II-100] | 7.66 | 9.21 | 8.05
15 | Cc1cc(-c2nc(C(=O)Nc3cc4cn(C5CC6CCC(C5)N6C)nc4cc3C(C)(C)O)co2)ccn1 (stereo not shown) [II-101] | 7.66 | 9.32 | 8.15
16 | Cc1cc(-c2nc(C(=O)Nc3cc4cn(CCC(C)(C)O)nc4cc3N3CCC(O)C3)co2)ccn1 (stereo not shown) [II-102] | 7.68 | 9.07 | 8.10
17 | Cc1cc(-c2nc(C(=O)Nc3cc4cn(C5CCOC(C)(C)C5)nc4cc3C(C)(C)O)co2)ccn1 (stereo not shown) [II-103] | 8.49 | 9.46 | 8.52
18 | CC(C)c1cc(-c2nc(C(=O)Nc3cc4cn(CCC(C)(C)O)nc4cc3C(C)(C)O)co2)ccn1 [II-104] | 8.28 | 8.64 | 7.68
19 | CC(C)(O)CCn1cc2cc(NC(=O)c3ccn(-c4ccnc(C(F)(F)F)c4)n3)c(C(C)(C)O)cc2n1 [II-105] | 8.58 | 7.41 | 
20 | Cc1cc(-c2nc(C(=O)Nc3cc4cn(C5CCN(C6COC6)CC5)nc4cc3C(C)(C)O)co2)ccn1 [II-106] | 8.48 | 9.39 | 8.10
21 | Cc1cc(-c2nc(C(=O)Nc3cc4cn(CC5(F)CN(C(=O)OC(C)(C)C)C5)nc4cc3C(C)(C)O)co2)ccn1 [II-107] | 8.04 | 9.14 | 
22 | Cc1cc(-c2nc(C(=O)Nc3cc4cn(CCN5CC6CC5CO6)nc4cc3C(C)(C)O)co2)ccn1 (stereo not shown) [II-110] | 8.09 | 9.44 | 
23 | Cc1cc(-c2nc(C(=O)Nc3cc4cn(C5CC(C)(C)OC(C)(C)C5)nc4cc3C(C)(C)O)co2)ccn1 [II-116] | 8.12 |  | 7.56
24 | Cc1cc(-n2ccc(C(=O)Nc3cc4oc(N5CCOCC5)nc4nc3N3CCC(O)C3)n2)ccn1 (stereo not shown) [II-123] | 6.91 |  | 
25 | Cc1cc(-c2nc(C(=O)Nc3cc4oc(N5CC6CC5CO6)nc4nc3N3CCC(O)C3)co2)ccn1 (stereo not shown) [II-125] | 7.09 |  | 
26 | Cc1cc(-c2nc(C(=O)Nc3cc4oc(N5CCN(CC(F)(F)F)CC5)nc4nc3N3CCC(O)C3)co2)ccn1 (stereo not shown) [II-128] | 7.36 | 7.89 | 
27 | Cc1cc(-c2nc(C(=O)Nc3cc4oc(N5CCC(C(F)(F)F)CC5)nc4nc3N3CCC(O)C3)co2)ccn1 (stereo not shown) [II-130] | 7.59 | 8.05 | 
28 | CC(C)(O)CCn1cc2cc(NC(=O)c3coc(-c4ccnc(C(F)(F)F)c4)n3)c(C(C)(C)O)nc2n1 [II-131] | 7.70 |  | 

Now from value to molecule, other results behind:

Row | pIC50 (IRAK4 kinase) | pIC50 (FLT3 kinase) | Compound | pIC50 (MV4-11 cells)
29 | 8.08 | 9.28 | COc1cc2nn(CCC3CCNC3=O)cc2cc1NC(=O)c1coc(-c2ccnc(C)c2)n1 (stereo not shown) [II-2] | 7.83
30 | 8.46 | 9.72 | COc1cc2nn(C3CCNCC3)cc2cc1NC(=O)c1nc(-c2ccnc(C)c2)c[nH]1 [II-5C] | 9.11
31 | 6.75 |  | COc1cc2nn(C3CCNCC3)cc2cc1NC(=O)c1coc(N2CCN(C(C)=O)CC2)n1 [II-6] | 
32 | 7.03 | 7.00 | COc1cc2nn(C3CCNCC3)cc2cc1NC(=O)c1coc(N2CCS(=O)(=O)CC2)n1 [II-7C] | 
33 | 7.60 | 8.02 | COc1cc2nn(CCC3CCNC3=O)cc2cc1NC(=O)c1coc(-c2ccnc(C(F)(F)F)c2)n1 (stereo not shown) [II-8] | 
34 | 8.03 |  | COc1cc2nn(C3CCNCC3)cc2cc1NC(=O)c1coc(-c2ccccc2)n1 [II-9C] | 
35 | 7.60 | 8.54 | COc1cc2nn(C3CCNCC3)cc2cc1NC(=O)c1coc(-c2ccncc2)n1 [II-10C] | 8.37
36 | 8.16 | 9.12 | COc1cc2nn(C3CCNCC3)cc2cc1NC(=O)c1ccn(-c2ccnc(C)c2)n1 [II-11C] | 8.34
37 | 8.00 | 9.36 | COc1cc2nn(CCS(C)(=N)=O)cc2cc1NC(=O)c1coc(-c2ccnc(C)c2)n1 (stereo not shown) [II-12] | 7.75
38 | 8.19 | 9.36 | COc1cc2nn(C3CCNCC3)cc2cc1NC(=O)c1coc(-c2ccnc(C(F)(F)F)c2)n1 [II-13C] | 7.84
39 | 8.12 | 9.14 | Cc1cc(-c2nc(C(=O)Nc3cc4cn(C5CCNCC5)nc4cc3OC(C)C)co2)ccn1 [II-14C] | 9.60
40 | 8.19 | 8.89 | COc1cc2nc(C3CCNCC3)cn2cc1NC(=O)c1coc(-c2ccnc(C)c2)n1 [II-15C] | 8.09
41 | 7.64 | 9.11 | Cc1cc(-c2nc(C(=O)Nc3cc4cn(C5CCC(O)CC5)nc4cc3C(C)(C)O)co2)ccn1 (stereo not shown) [II-54] | 7.45
42 | 8.47 | 9.62 | Cc1cc(-c2nc(C(=O)Nc3cc4cn(C5CCOCC5)nc4cc3C(C)(C)O)co2)ccn1 [II-56] | 8.34
43 | 8.19 | 9.52 | Cc1cc(-c2nc(C(=O)Nc3cc4cn(C5CCS(=O)(=O)CC5)nc4cc3C(C)(C)O)co2)ccn1 [II-57] | 7.89
44 | 8.10 | 9.36 | COc1cc2nn(C3CCNCC3)cc2cc1NC(=O)c1coc(-c2ccnc(C(F)F)c2)n1 [II-94C] | 7.97
45 | 7.92 | 9.33 | COc1cc2nn(C3CCS(=N)(=O)CC3)cc2cc1NC(=O)c1coc(-c2ccnc(C)c2)n1 (stereo not shown) [II-95] | 7.74
46 | 8.43 | 9.66 | COc1cc2nn(C3CCS(=O)(=O)CC3)cc2cc1NC(=O)c1coc(-c2ccnc(C)c2)n1 [II-96] | 8.19
